This is an account of results in US20100255598A1, “Medication Adherence Monitoring System” (priority 2007, published 2010).

Where two headings read alike, the source gives them in different places.

Data set [1] concerns alcohol dehydrogenase (ADH). The experiment in a line: Breath ketone:alcohol ratio after 2° alcohol taggant. It is filed as in vivo. Particulars: breath concentrations. On the procedure: The presence (and persistence) of their corresponding ketones (EDIMs) in exhaled breath represents definitive proof of ingestion of a medication containing 2° alcohols (or a 2° alcohol-based ester, carbonate ester, ketal, etc.) as taggants. In general due to increased steric hindrance, 2° alcohols are not as good substrates for ADH relative to 1° alcohols. Likewise, the enzymatic pathways to degrade alcohol-derived ketones appear less efficient than those for alcohol-derived aldehydes.

The test system of a further data set is alcohol dehydrogenase. Particulars: cited from earlier work.
The target of the next data set is T1, CYP1A2 (Homo sapiens, UniProt P05177).
T1 sequence (P05177 1-516): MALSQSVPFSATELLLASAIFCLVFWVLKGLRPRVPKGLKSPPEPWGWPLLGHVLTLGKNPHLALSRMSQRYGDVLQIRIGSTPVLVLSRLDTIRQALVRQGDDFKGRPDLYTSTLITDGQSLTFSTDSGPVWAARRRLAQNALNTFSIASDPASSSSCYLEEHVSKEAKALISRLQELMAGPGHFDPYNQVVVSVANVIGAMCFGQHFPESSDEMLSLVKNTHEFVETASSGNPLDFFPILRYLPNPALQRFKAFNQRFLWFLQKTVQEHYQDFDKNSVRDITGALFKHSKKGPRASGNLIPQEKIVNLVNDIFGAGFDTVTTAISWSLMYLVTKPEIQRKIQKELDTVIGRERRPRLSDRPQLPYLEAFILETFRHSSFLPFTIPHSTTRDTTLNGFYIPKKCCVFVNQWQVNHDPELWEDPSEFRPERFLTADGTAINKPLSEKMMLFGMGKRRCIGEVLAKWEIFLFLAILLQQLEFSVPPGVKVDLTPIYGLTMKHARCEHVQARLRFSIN
The note with it: given orally to humans; cited from earlier work.

For the next data set, the target named is CYP 2D6 (Homo sapiens, UniProt P10635). The note with it: via CYP 2D6; cited from earlier work.
The conditions of data set [2]: at 37° C.; cited from earlier work.

Chain of CYP 2D6 (P10635 whole entry): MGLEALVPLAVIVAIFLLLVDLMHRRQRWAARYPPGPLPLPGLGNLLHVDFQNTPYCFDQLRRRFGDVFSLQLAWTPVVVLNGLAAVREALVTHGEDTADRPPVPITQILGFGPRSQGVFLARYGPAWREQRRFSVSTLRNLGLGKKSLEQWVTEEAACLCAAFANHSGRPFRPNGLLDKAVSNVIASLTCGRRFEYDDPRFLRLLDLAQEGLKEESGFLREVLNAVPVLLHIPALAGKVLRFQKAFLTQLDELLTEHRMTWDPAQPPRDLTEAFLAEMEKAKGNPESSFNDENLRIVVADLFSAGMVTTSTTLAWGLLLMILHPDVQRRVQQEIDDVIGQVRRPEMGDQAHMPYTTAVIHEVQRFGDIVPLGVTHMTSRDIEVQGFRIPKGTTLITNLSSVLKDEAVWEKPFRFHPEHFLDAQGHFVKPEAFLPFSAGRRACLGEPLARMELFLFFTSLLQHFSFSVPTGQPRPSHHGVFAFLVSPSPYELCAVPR

As to `CCC(C)=O` [2-butanone], the “ketone:alcohol ratio 2-butanone/2-butanol” value in data set [1] is listed as greater than 1.
`CO` [Methanol, methanol]: the figures for the “half life in the blood” value in the data set with alcohol dehydrogenase (in the absence of alcohol) and in the data set on alcohol dehydrogenase (in the presence of alcohol) were 1.8 to 3.0 h and 8 to 24 h, respectively.
For the compound `Cn1c(=O)c2c(ncn2C)n(C)c1=O` [caffeine], the “fraction converted to theophylline” value on CYP1A2 is recorded as “Approximately 80%”.
`COc1ccc2c3c1O[C@H]1[C@@H](O)C=C[C@H]4[C@@H](C2)N(C)CC[C@@]341` [codeine]: the “fraction converted to morphine in vivo” value at CYP 2D6 is “about 10%”.
As for `CC(C)c1cccc(C(C)C)c1O` [propofol], in data set [2], the vapor pressure is given as roughly 0.2 mmHg.
